Data: US12365685B2, “Substituted fused aromatic ring derivative, composition and use thereof” (Shenzhen TargetRx, Inc., priority 2019, dated 2025)
Like-named read-outs stand apart in the source and are kept apart here.

Columns and labels:
Ba/F3 parental = experiment: Cytotoxicity assay, Ba/F3 parental (CellTiter-Glo); assay type: cell-based; settings: Mus musculus, BaF3; 72 hrs, CTG
Description: [Worded in the source for another cell line; this cell line is reported under the same test.] (§1) Inhibitory effect of example compounds on the activity of Ba/F3 KIF5B-RET and Ba/F3 FLT3-ITD cells was detected.
(§2) Materials and reagents: fetal bovine serum (FBS) (GIBCO, Cat. No. 10099141), CellTiter-Glo® Luminescent Cell Viability Assay (Promega, Cat #G7572), 96-well clear flat-bottom black-wall plate (Corning®, Cat #3603).
(§3) • 1. Cells in the logarithmic growth phase were harvested and counted with a […]. Cell viability was detected by a trypan blue exclusion method, ensuring that cell viability was 90% or more; • 2. The cell concentration was adjusted to 3000 cells/well; 90 μl of cell suspension was added to each well of the 96-well plate; • 3. The cells in the 96-well plate were incubated overnight under the condition of 37° C., 5% CO2, and 95% humidity. Dilution and Addition of Compound: • 1. 10-fold compound solutions were formulated by 3.16-fold serial dilution starting from a concentration of 10 μM, resulting in 9 concentrations. 10 μL of the compound solutions were added in each well of the 96-well plate seeded with cells in triplicate for each compound concentration; • 2. The cells in the 96-well plate added with compounds were further incubated under the condition of 37° C., 5% CO2, and 95% humidity for 72 hrs, and then CTG analysis was carried out. Plate Reading at the End: • 1. CTG reagent was thawed, and the cell plate was equilibrated at room temperature for 30 minutes; • 2. An equal volume ([…]) of CTG solution was added to each well; • 3. The cell plate was shaken on an orbital shaker for 5 minutes to lyse the cells; • 4. The cell plate was placed at RT for 20 minutes to stabilize the luminescence signal; • 5. Luminescence value was read. Data Processing
(§4) Data were analyzed by GraphPad Prism 5.0 software, and fitted by nonlinear S-curve regression to obtain a dose-response curve, from which IC50 values were calculated, wherein A indicates IC50≤10 nM, B indicates 10 nM<IC50≤50 nM, C indicates 50 nM<IC50≤100 nM, and D indicates IC50>100 nM. cell survival (%)=(Lumtest compound−Lumculture medium control)/(Lumcell control−Lumculture medium control)×100%.

Ret wt = Ret wt (Homo sapiens (Human), UniProt P07949); experiment: Inhibition of kinase, Ret wt (HTRF KinEASE-TK); assay type: biochemical
Sequence of Ret wt (P07949 29-1114): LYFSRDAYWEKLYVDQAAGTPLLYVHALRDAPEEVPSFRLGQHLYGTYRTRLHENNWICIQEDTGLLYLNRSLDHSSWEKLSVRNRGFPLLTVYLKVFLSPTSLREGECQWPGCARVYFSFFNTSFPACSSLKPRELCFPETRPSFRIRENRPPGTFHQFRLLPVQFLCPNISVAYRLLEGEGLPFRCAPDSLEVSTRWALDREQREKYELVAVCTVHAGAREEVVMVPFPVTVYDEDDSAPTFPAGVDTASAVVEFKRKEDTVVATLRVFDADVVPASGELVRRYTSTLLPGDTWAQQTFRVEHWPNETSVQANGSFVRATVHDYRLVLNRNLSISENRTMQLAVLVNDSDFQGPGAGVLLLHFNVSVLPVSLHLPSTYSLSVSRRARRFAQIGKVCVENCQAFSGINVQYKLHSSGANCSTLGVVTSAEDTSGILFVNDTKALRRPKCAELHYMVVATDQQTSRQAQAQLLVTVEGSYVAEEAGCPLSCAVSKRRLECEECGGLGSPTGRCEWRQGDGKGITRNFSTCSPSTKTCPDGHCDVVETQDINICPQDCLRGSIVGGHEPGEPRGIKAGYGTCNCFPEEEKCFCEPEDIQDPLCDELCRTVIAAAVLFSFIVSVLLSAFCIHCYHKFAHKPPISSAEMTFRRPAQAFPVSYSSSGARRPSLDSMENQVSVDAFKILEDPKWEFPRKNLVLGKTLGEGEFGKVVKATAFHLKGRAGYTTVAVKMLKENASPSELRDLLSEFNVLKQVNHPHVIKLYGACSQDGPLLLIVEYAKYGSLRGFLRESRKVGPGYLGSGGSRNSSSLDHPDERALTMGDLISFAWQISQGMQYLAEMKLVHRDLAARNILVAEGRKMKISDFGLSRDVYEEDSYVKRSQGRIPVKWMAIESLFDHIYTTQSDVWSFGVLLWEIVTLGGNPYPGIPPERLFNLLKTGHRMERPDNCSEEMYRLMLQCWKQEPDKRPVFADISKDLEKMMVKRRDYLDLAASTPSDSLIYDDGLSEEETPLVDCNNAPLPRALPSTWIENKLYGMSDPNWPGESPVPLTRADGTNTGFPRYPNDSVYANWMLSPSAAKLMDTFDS
Method: (§5) Ret wt (Carna, Cat. No. 08-159-10 ug), RET (V804M), Active (Signalchem, Cat. No. R02-12GG), HTRF KinEASE-TK kit (Cisbio, Cat. No. 62TK0PEC), CEP-32496 (MCE, Cat. No. HY-15200), ATP (Sigma, Cat. No. A7699), DMSO (Sigma, Cat. No. D8418-1L), DTT (Sigma, Cat. No. D0632), MgCl2 (Sigma, Cat. No. M1028), 384-well plate (Labcyte, Cat. No. P-05525-BC).
(§6) Formulation of compound: The test compounds were dissolved in DMSO to obtain 10 mM stock solutions, which were then serially diluted 3-fold in DMSO to obtain 10 concentrations. At the time of addition, the compound was further diluted 10-fold with buffer.
(§7) In 5× kinase buffer A, Ret wt or RET V804M kinase was mixed with different concentrations of compounds prepared by pre-dilution for 10 minutes. Each concentration was tested in duplicate. The corresponding substrate and ATP were added, and reaction was performed at room temperature for 20 minutes (negative and positive controls were provided: the negative control was a blank control, and the positive control was CEP-32496). After completion of the reaction, detection reagents (reagents in the HTRF KinEASE-TK kit) were added. After incubating for 30 minutes at room temperature, enzyme activity in the presence of various concentrations of the compounds of the present disclosure was determined by Envision microplate reader, and inhibitory activity of different concentrations of the compounds on enzyme activity was calculated. The inhibitory activity of different concentrations of the compounds on enzyme activity was fitted by Graphpad 5.0 software, and the IC50 value was calculated, wherein A indicates IC50 10 nM, B indicates 10 nM<IC50≤50 nM, C indicates 50 nM<IC50≤100 nM, and D indicates IC50>100 nM.

Ba/F3 FLT3-ITD cells = experiment: Cytotoxicity assay, Ba/F3 FLT3-ITD (CellTiter-Glo); assay type: cell-based; settings: 72 hrs, CTG
Description: as §1, §2, §3, §4

RET V804M = RET V804M (Homo sapiens (Human), UniProt P07949, V804M); experiment: Inhibition of kinase, RET V804M (HTRF KinEASE-TK); assay type: biochemical; settings: reaction 20 minutes at room temperature
Sequence of RET V804M (P07949 29-1114 V804M): as the sequence (P07949 29-1114) above, with V776M counted along it
Method: as §5, §6, §7

Ba/F3 KIF5B-RET cells = experiment: Cytotoxicity assay, Ba/F3 KIF5B-RET (CellTiter-Glo); assay type: cell-based; settings: Mus musculus, BaF3; 72 hrs, CTG
Description: as §1, §2, §3, §4

Ba/F3 KIF5B-RET^V804M = experiment: Cytotoxicity assay, Ba/F3 KIF5B-RET V804M (CellTiter-Glo); assay type: cell-based; settings: Mus musculus, BaF3; 72 hrs, CTG
Description: [Worded in the source for another variant; this variant is reported under the same test.] as §1, §2, §3, §4

Ba/F3 FLT3-ITD^F691L = experiment: Cytotoxicity assay, Ba/F3 FLT3-ITD F691L (CellTiter-Glo); assay type: cell-based; settings: Mus musculus, BaF3; 72 hrs, CTG
Ba/F3 FLT3-ITD^D835Y = experiment: Cytotoxicity assay, Ba/F3 FLT3-ITD D835Y (CellTiter-Glo); assay type: cell-based; settings: Mus musculus, BaF3; 72 hrs, CTG
Description: [Worded in the source for another variant; this variant is reported under the same test.] as §1, §2, §3, §4

[1] = HTRF KinEASE-TK, reaction 20 minutes at room temperature, read-out: Ret wt IC50

SMILES | IC50 (Ret wt; [1]) [nM] | IC50 (RET V804M) [nM] | IC50 (Ret wt; read-out: IC50 against Ret wt) [nM] | IC50 (Ba/F3 parental) [nM] | IC50 (Ba/F3 FLT3-ITD cells) [nM] | IC50 (Ba/F3 KIF5B-RET cells) [nM] | IC50 (Ba/F3 KIF5B-RET^V804M) [nM] | IC50 (Ba/F3 FLT3-ITD^F691L) [nM] | IC50 (Ba/F3 FLT3-ITD^D835Y) [nM]
Cn1cc(-c2cnn3c(-c4ccc(NC(=O)Nc5cc(C(F)(F)F)ccc5F)cc4)cnc3c2)cn1 [Compound T-1, 1-(2-fluoro-5-(trifluoromethyl)phenyl)-3-(4-(7-(1-methyl-1H-pyrazol-4-yl)imidazo[1,2-b]pyridazin-3-yl)phenyl)urea] | > 100 | 75.8 |  | 1090 | 2.32 | 534 |  |  | 
Cn1cc(-c2cc3ncc(-c4ccc(CC(=O)Nc5cc(C(C)(C)C(F)(F)F)on5)cn4)n3cn2)cn1 [Compound T-3, 2-(6-(7-(1-methyl-1H-pyrazol-4-yl)imidazo[1,2-c]pyrimidin-3-yl)pyridin-3-yl)-N-(5-(1,1,1-trifluoro-2-methylpropan-2-yl)isoxazol-3-yl)acetamide] | 0.13 | 0.21 |  | 8070 | 0.2 | 51.2 | 125 | 13.5 | 9.08
Cn1cc(-c2cc3ncc(-c4ccc(CC(=O)Nc5cc(C(C)(C)C(F)(F)F)on5)cc4)n3cn2)cn1 [Compound T-4, 2-(4-(7-(1-methyl-1H-pyrazol-4-yl)imidazo[1,2-c]pyrimidin-3-yl)phenyl)-N-(5-(1,1,1-trifluoro-2-methylpropan-2-yl)isoxazol-3-yl)acetamide] | 0.16 | 0.28 |  |  | 0.49 | 7.17 |  |  | 
Cn1cc(Nc2nccn3c(-c4ccc(CC(=O)Nc5cc(C(C)(C)C(F)(F)F)on5)cc4)cnc23)cn1 [Compound T-5, 2-(4-(8-((1-methyl-1H-pyrazol-4-yl)amino)imidazo[1,2-a]pyrazin-3-yl)phenyl)-N-(5-(1,1,1-trifluoro-2-methylpropan-2-yl)isoxazol-3-yl)acetamide] | 0.25 | 0.8 |  | 2270 | 0.1 | 2.48 | 5.43 | 1.43 | 1.43
Cn1cc(-c2cnn3c(-c4ccc(CC(=O)Nc5cc(C(C)(C)C(F)(F)F)on5)c(F)c4)cnc3c2)cn1 [Compound T-7, 2-(2-fluoro-4-(7-(1-methyl-1H-pyrazol-4-yl)imidazo[1,2-b]pyridazin-3-yl)phenyl)-N-(5-(1,1,1-trifluoro-2-methylpropan-2-yl)isoxazol-3-yl)acetamide] | 0.15 | 0.2 |  | 1820 | 0.19 | 2.3 | 10.8 | 1.15 | 1.15
Cn1cc(-c2cc3ncc(-c4ccc(CC(=O)Nc5cc(C(C)(C)C(F)(F)F)on5)c(F)c4)n3cn2)cn1 [Compound T-8, 2-(2-fluoro-4-(7-(1-methyl-1H-pyrazol-4-yl)imidazo[1,2-c]pyrimidin-3-yl)phenyl)-N-(5-(1,1,1-trifluoro-2-methylpropan-2-yl)isoxazol-3-yl)acetamide] | 0.1 | 0.35 | < 0.2 |  |  | 15.4 |  |  | 
Cn1cc(-c2ccc3c(-c4ccc(CC(=O)Nc5cc(C(C)(C)C(F)(F)F)on5)cc4)cnn3c2)cn1 [Compound T-11, 2-(4-(6-(1-methyl-1H-pyrazol-4-yl)pyrazolo[1,5-a]pyridin-3-yl)phenyl)-N-(5-(1,1,1-trifluoro-2-methylpropan-2-yl)isoxazol-3-yl)acetamide] | 0.68 | 0.87 |  | 1400 | 0.2 | 15.4 | 3.66 | 1.12 | 1.73

The next lines start with results.

IC50 (Ret wt; [1]) [nM] | IC50 (RET V804M) [nM] | IC50 (Ret wt; read-out: IC50 against Ret wt) [nM] | SMILES | IC50 (Ba/F3 parental) [nM] | IC50 (Ba/F3 FLT3-ITD cells) [nM] | IC50 (Ba/F3 KIF5B-RET cells) [nM] | IC50 (Ba/F3 KIF5B-RET^V804M) [nM] | IC50 (Ba/F3 FLT3-ITD^F691L) [nM] | IC50 (Ba/F3 FLT3-ITD^D835Y) [nM]
0.18 | 0.4 |  | Cn1cc(-c2cnn3c(-c4ccc(CC(=O)Nc5cc(C(C)(C)C(F)(F)F)on5)cc4)cnc3c2)cn1 [Compound T-2, 2-(4-(7-(1-methyl-1H-pyrazol-4-yl)imidazo[1,2-b]pyridazin-3-yl)phenyl)-N-(5-(1,1,1-trifluoro-2-methylpropan-2-yl)isoxazol-3-yl)acetamide] | 3270 | 0.79 | 4.91 | 17.9 | 1.43 | 1.22
0.45 | 1.04 |  | Cn1cc(Nc2ccnn3c(-c4ccc(CC(=O)Nc5cc(C(C)(C)C(F)(F)F)on5)cc4)cnc23)cn1 [Compound T-6, 2-(4-(8-((1-methyl-1H-pyrazol-4-yl)amino)imidazo[1,2-b]pyridazin-3-yl)phenyl)-N-(5-(1,1,1-trifluoro-2-methylpropan-2-yl)isoxazol-3-yl)acetamide] | 2180 | 1.05 | 6.2 | 20.9 | 1.24 | 2.38
0.24 | 0.48 |  | Cn1cc(-c2cnn3c(-c4ccc(CC(=O)Nc5cc(C(C)(C)C(F)(F)F)on5)cn4)cnc3c2)cn1 [Compound T-9, 2-(6-(7-(1-methyl-1H-pyrazol-4-yl)imidazo[1,2-b]pyridazin-3-yl)pyridin-3-yl)-N-(5-(1,1,1-trifluoro-2-methylpropan-2-yl)isoxazol-3-yl)acetamide] | > 10000 | 0.51 | 60.8 | 559 | 15.7 | 10.6
0.1 | 0.23 |  | Cn1cc(-c2cnc3c(-c4ccc(CC(=O)Nc5cc(C(C)(C)C(F)(F)F)on5)cc4)cnn3c2)cn1 [Compound T-10, 2-(4-(6-(1-methyl-1H-pyrazol-4-yl)pyrazolo[1,5-a]pyrimidin-3-yl)phenyl)-N-(5-(1,1,1-trifluoro-2-methylpropan-2-yl)isoxazol-3-yl)acetamide] | 930 | < 0.1 | 9.98 | 8.15 | 1.02 | 1.83
0.31 | 1.12 |  | Cn1cc(-c2cn3ncc(-c4ccc(CC(=O)Nc5cc(C(C)(C)C(F)(F)F)on5)cc4)c3cn2)cn1 [Compound T-12, 2-(4-(6-(1-methyl-1H-pyrazol-4-yl)pyrazolo[1,5-a]pyrazin-3-yl)phenyl)-N-(5-(1,1,1-trifluoro-2-methylpropan-2-yl)isoxazol-3-yl)acetamide] |  |  | 9.98 |  |  | 
